Laboratory results taken from PubChem BioAssay (NCI).
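Step 1: Grow cells in 96-well plates. Step 2: Expose to compound for 48 hours at 5 concentrations. Step 3: Interpolate endpoints linearly; if unreached, use highest concentration. GI50 marks 50% less growth. TGI: concentration producing complete growth inhibition.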 Where a SMILES comes first, the peptide text is derived from it. Bridges are numbered along the chain shown (N, C = ends). [ ]: non-standard residue; d: D form. The star is where a group is joined. Phe(3,5-F2) = N[C@@H](Cc1cc(F)cc(F)c1)C(=O)O; Pro(4R-Me) = C[C@H]1CN[C@H](C(=O)O)C1; aThr = C[C@H](O)[C@H](N)C(=O)O; Pip = O=C(O)[C@@H]1CCCCN1; X7 = CCC/C=C/C=C/C(=O)*

Columns and labels:
Test in all cases: inhibition of tumour cell growth, NCI panel, 48 h
786-0 renal = tested on: 786-0 renal
A498 renal = tested on: A498 renal
A549 NSCLC = tested on: A549 NSCLC
ACHN renal = tested on: ACHN renal
BT-549 breast = tested on: BT-549 breast
CAKI-1 renal = tested on: CAKI-1 renal
CCRF-CEM leukemia = tested on: CCRF-CEM leukemia
COLO 205 colon = tested on: COLO 205 colon
DU-145 prostate = tested on: DU-145 prostate
EKVX NSCLC = tested on: EKVX NSCLC
HCC-2998 colon = tested on: HCC-2998 colon
HCT-116 colon = tested on: HCT-116 colon
HCT-15 colon = tested on: HCT-15 colon
HL-60(TB) leukemia = tested on: HL-60(TB) leukemia
HOP-62 NSCLC = tested on: HOP-62 NSCLC
HOP-92 NSCLC = tested on: HOP-92 NSCLC
HS 578T breast = tested on: HS 578T breast
HT29 colon = tested on: HT29 colon
IGROV1 ovarian = tested on: IGROV1 ovarian
K-562 leukemia = tested on: K-562 leukemia
KM12 colon = tested on: KM12 colon
LOX IMVI melanoma = tested on: LOX IMVI melanoma
M14 melanoma = tested on: M14 melanoma
MALME-3M melanoma = tested on: MALME-3M melanoma
MCF7 breast = tested on: MCF7 breast
MDA-MB-231 breast = tested on: MDA-MB-231 breast
MDA-MB-435 = tested on: MDA-MB-435
MOLT-4 leukemia = tested on: MOLT-4 leukemia
NCI-H226 lung = tested on: NCI-H226 lung

## CCC/C=C/C=C/C(=O)N[C@@H](Cc1cc(F)cc(F)c1)C(=O)N[C@@H]1C(=O)N2CCC[C@H]2C(=O)N2CCCC[C@H]2C(=O)N[C@@H](C)C(=O)N2C[C@H](C)C[C@H]2C(=O)O[C@H]1C (X7-[Phe(3,5-F2)][aThr]P[Pip]A[Pro(4R-Me)]; ester 2-C)
786-0 renal
  GI50: 0.842 µM
  TGI: 31 µM
A498 renal
  GI50: 2.43 µM
  TGI: 28.4 µM
A549 NSCLC
  GI50: 0.506 µM
  TGI: > 58.5 µM
ACHN renal
  GI50: 1.12 µM
  TGI: 28.7 µM
BT-549 breast
  GI50: 0.37 µM
  TGI: 3.4 µM
CAKI-1 renal
  GI50: 0.415 µM
  TGI: 12.5 µM
CCRF-CEM leukemia
  GI50: 0.411 µM
  TGI: 14.5 µM
COLO 205 colon
  GI50: 0.286 µM
  TGI: 0.85 µM
DU-145 prostate
  GI50: 0.619 µM
  TGI: > 66.7 µM
EKVX NSCLC
  GI50: 0.491 µM
  TGI: 26.2 µM
HCC-2998 colon
  GI50: 0.463 µM
  TGI: 4.93 µM
HCT-116 colon
  GI50: 0.42 µM
  TGI: 11.4 µM
HCT-15 colon
  GI50: 0.482 µM
  TGI: 11 µM
HL-60(TB) leukemia
  GI50: 0.404 µM
  TGI: 5.83 µM
HOP-62 NSCLC
  GI50: 0.516 µM
  TGI: 16.9 µM
HOP-92 NSCLC
  GI50: 0.313 µM
  TGI: 3.74 µM
HS 578T breast
  GI50: 0.594 µM
  TGI: 17.4 µM
HT29 colon
  GI50: 0.586 µM
  TGI: 4.16 µM
IGROV1 ovarian
  GI50: 1.78 µM
  TGI: 23.7 µM
K-562 leukemia
  GI50: 0.402 µM
  TGI: > 100 µM
KM12 colon
  GI50: 1.81 µM
  TGI: 29 µM
LOX IMVI melanoma
  GI50: 0.433 µM
  TGI: 12.8 µM
M14 melanoma
  GI50: 0.461 µM
  TGI: 5.23 µM
MALME-3M melanoma
  GI50: 1.01 µM
  TGI: 14 µM
MCF7 breast
  GI50: 0.354 µM
  TGI: 13.6 µM
MDA-MB-231 breast
  GI50: 0.409 µM
  TGI: 3.36 µM
MDA-MB-435
  GI50: 0.412 µM
  TGI: 5.71 µM
MOLT-4 leukemia
  GI50: 1.11 µM
  TGI: > 44 µM
NCI-H226 lung
  GI50: 0.547 µM
  TGI: 7.97 µM
